Measurements from publication PMC11697113, “The Hsc70 system maintains the synaptic SNARE protein SNAP-25 in an assembly-competent state and delays its aggregation [drawing 1]” (The Journal of Biological Chemistry, 2024).

Biological target: T1, Hsc70 (Homo sapiens, UniProt P11142)
T1 construct: 6X His-tag (TEV-cleavable) (cleaved yes); made in house; host or cells: E. coli Rosetta (DE3)
Test: Competition binding vs FITC-p5 by fluorescence anisotropy
Conditions: Hsc70 5 μM, FITC-p5 50 nM, competitor 0 to 200 μM, phosphate buffer pH 7.4, overnight 4 °C, three independent experiments; for relative affinity for Hsc70: fluorescence anisotropy, comparator LOOPP
Description: Figure 3 Hsc70 forms complexes with SNAP-25.A, native PAGE of SNAP-25 (10 μM) in the presence and absence of Hsc70 (2 μM). The difference in signal intensity of His-SNAP25 probed with antibody is likely due to altered epitope exposure upon formation of the SNAP-25-Hsc70 complex. B, binding of SNAP-25 (black), SNAP-25 SNN (SNNFR, orange), and SNC (SNCFR, green)) fragments to Hsc70 by competition followed by fluorescence anisotropy. Increasing concentrations of the competitors were added to a complex of Hsc70 (5 μM) and FITC-p5 peptide (50 nM). Error bars represent SDs from three independent experiments.
To pin down the regions in SNAP-25 where Hsc70 binds we expressed the individual SNN and SNC fragments of SNAP-25 and tested their ability to compete for Hsc70 binding to an FITC-labeled p5 peptide (ALLLSAPRR).
Figure 5 SNN and SNC peptides interact with the canonical substrate-binding site of Hsc70.A, ATPase activity of Hsc70 (2 μM) in the absence (gray) and presence of 200 μM SNNP (orange) and SNCP (green) peptides. Error bars represent the SDs from three independent experiments. B, binding of SNAP-25 (black), SNNP (orange), LoopP (blue), and SNCP (green) peptides to Hsc70 followed by competition for FITC-p5 peptide using fluorescence anisotropy. Increasing concentrations of the competitors were added to a complex of Hsc70 (5 μM) and FITC-p5 peptide (50 nM). Error bars represent SDs from three independent experiments. C, structure of the canonical substrate-binding site of human HspA1 (PDB 4po2) illustrating the location of Hsc70 residues Ile 403 and Ile 440 in red and green spheres, respectively (N.B., Hsc70 and HspA1 share […] sequence identity). The SBD is shown in gray, bound substrate in cyan sticks, and the side chain of the residue occupying the 0th position in the chaperone (“anchor residue”) in orange ball and sticks. For better visualization of the substrate-binding site, residues 512 to 613, 405 to 408, and 431 were removed in this illustration of the structure. D, the Ile region of the ^1H-^13 C HMQC spectra of Ile-^13CH3-labeled Hsc70 (40 μM) in the absence (black) and in the presence of unlabeled SNNP (orange) and SNCP (green) peptides (200 μM).
To further characterize the binding of the SNAP-25 peptides to Hsc70 we used competition assays as above. Peptides SNNP, LOOPP, and SNCP were titrated against the protein-peptide complex of Hsc70 and FITC-p5 and fluorescence anisotropy was monitored to assess how well the SNAP-25 peptides displaced the model peptide.
Direct binding between the p5 peptide (QSRLLLSAPRRAA) and Hsc70 was carried out as described previously ([52]). […] Fluorescence anisotropy was measured in a BioTek plate reader (BioTek) with excitation at 485 nm and emission at 516 nm.
The measured anisotropy values were converted to fraction bound (fb) using the equation: fb=(r−r0)/(rb−r0) where r is the anisotropy value at any point, r0 is the anisotropy value of FITC-p5 in the absence of Hsc70, and rb is the anisotropy value of FITC-p5 when fully bound to Hsc70. […]
For competition assays, the concentrations of Hsc70 and FITC-P5 were kept constant at 5 μM and 50 nM, respectively, and the competitor substrate was titrated from 0 to 200 μM in phosphate buffer. […] Fluorescent anisotropy was measured as described above. […]

T1 sequence (P11142 whole entry): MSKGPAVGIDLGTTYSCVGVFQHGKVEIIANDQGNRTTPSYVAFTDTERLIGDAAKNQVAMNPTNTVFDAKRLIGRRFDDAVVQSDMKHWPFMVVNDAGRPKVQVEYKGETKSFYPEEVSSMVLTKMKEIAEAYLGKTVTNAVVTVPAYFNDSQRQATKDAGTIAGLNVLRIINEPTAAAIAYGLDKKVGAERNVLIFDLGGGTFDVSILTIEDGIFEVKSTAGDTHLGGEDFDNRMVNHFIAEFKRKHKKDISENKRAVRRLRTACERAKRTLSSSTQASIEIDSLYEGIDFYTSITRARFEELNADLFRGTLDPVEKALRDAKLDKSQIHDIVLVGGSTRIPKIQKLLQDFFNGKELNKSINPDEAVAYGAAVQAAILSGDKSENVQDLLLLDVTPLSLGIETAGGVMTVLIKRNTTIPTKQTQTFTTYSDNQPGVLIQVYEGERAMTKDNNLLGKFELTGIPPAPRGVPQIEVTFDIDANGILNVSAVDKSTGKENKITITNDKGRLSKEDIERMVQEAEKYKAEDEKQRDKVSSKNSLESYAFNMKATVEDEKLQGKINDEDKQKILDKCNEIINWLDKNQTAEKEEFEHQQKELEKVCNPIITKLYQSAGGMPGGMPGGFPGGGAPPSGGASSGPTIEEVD

Row | Substance | relative affinity for Hsc70 | competition with p5 peptide for binding to Hsc70 (fluorescence anisotropy 485/516 nm)
1 | EREQMAISGGFIRR [SNCP, peptide … from the LOOP-SNC domain of SNAP-25] | significantly higher affinity than LOOPP | –
2 | RRMLQLVEESK [SNNP, peptide … from the SNN domain of SNAP-25] | significantly higher affinity than LOOPP | –
3 | synaptosomal-associated 25 kDa protein [SNAP-25] | – | competed with p5 peptide for binding to Hsc70
